Patent US4575459A, “Toxoids of elastase of Pseudomonas aeruginosa origin” (Toho Yakuhin Kogyo Kabushiki Kaisha, priority 1984, dated 1986)
Values joined by “and” are separate entries in the source; they are usually repeats but may differ in a detail not shown here. Equal values may be shown once.

Columns and labels:
[1] = tested on: Pseudomonas aeruginosa elastase; details: incubation of the reagent with the enzyme; Nishino and Powers, J. Biol. Chem. (1980); cited from earlier work
ddY mice [2] = test: PHA value on mice; type: in vivo, mouse; details: 50 μg with potassium alum three times, first and second collected bloods (just before and 14th day after third inoculation)
Protocol: (§1) The values were determined according to a method described by one of the present inventors, Y. Homma, in The Japan J. Exp. Med., Vol. 45, No. 5, pages 361-365 (1975), and the values were expressed as a reciprocal number to a multiplied number of the dilution of sera.
(§2) To a solution of Toxoid I of this invention in a concentration of 0.5 mg/ml., an equal volume of 1% potassium alum solution was added. Each 0.2 ml of the solution, in which 50 μg of Toxoid I were contained, were inoculated into ddY mice of 4 weeks old respectively three times at an interval of 2 weeks. At just before and on the 14th day after the third inoculation, bloods were collected from each mouse and the values of PHA and elastase-neutralizing activity were inspected in the same manner as with Tests A and C in Experiment 1.

ddY mice [3] = test: Elastase-neutralizing activity on mice; type: in vivo, mouse
Protocol: (§3) Sera of the tested rabbits were warmed at 56° C. for 30 minutes and 0.2 ml of the sera were added to 0.2 ml of elastase solution, to which normal saline solution was added up to a volume of 2 ml in total. The solution was left for 60 minutes at 37° C., then, 1 ml of 2% casein solution was added to 1 ml of the solution. The residual elastase activity was determined with the thus mixed solution.
as §2

[4] = Antigenic activity listed among the identified properties of the toxoids; details: listed property
rabbits [5] = test: Antigenicity test on rabbits, Test A: passive hemagglutinative value test (PHA test); type: in vivo, rabbit; details: reciprocal of serum dilution; individual rabbits, 1 mg s.c. with Freund's incomplete adjuvant 3 to 4 times, blood two weeks after last inoculation
Protocol: (§4) Method: Three rabbits, each having 2.5 Kg of a body weight, were subcutaneously inoculated with each 1 mg of Toxoid I together with Freund's incomplete adjuvant and the inoculation was repeated 3 to 4 times at an interval of 2 weeks. On the day of two weeks after the last inoculation, blood was collected from the rabbits and was availed for following Tests A, B and C. The same method as the preceeding was conducted employing Toxoid II.
as §1

rabbits [6] = test: Antigenicity test on rabbits, Test C: elastase-neutralizing activity test of sera; type: in vivo, rabbit; details: elastase activity neutralized by 1 ml of anti-serum; individual rabbits
Protocol: as §4, §3

rabbits [7] = test: Antigenicity test on rabbits, Test B: precipitation in agar-gel test; type: in vivo, rabbit; details: 22° C., 24 hours, dilution at which precipitation line first becomes observable, individual rabbits
Protocol: as §4
In 0.01M phosphate buffer-normal saline solution (pH 7.0) which contained 0.1% of sodium azide, agarose was dissolved to form a concentration of 1.5% by weight, and 10 ml of the solution were poured in a dish having 9 cm of a diameter and the solution was left to make the agar hard. Several holes were made on the hardened agar and antigens or antisera were separately poured into every hole and the agar was left at 22° C. for 24 hours long, then, the existence of a precipitation line was inspected. The concentration of antigens is expressed by a unit of μg/ml, wherein the numerator indicates a quantity of antigens and a denominator indicates the dilution volume which is required until a precipitation line will first becomes observable.

Casein = test: Proteinase activity on casein (Folin's method), specific activity in mPU; type: biochemical
Protocol: In Examples 1 and 2, the term "mPU/ml protein of a specific activity" signifies the proteinase activity determined by the following procedure:
Casein (2%, pH 7.4, 1 ml) is admixed with 1 ml of an appropriately diluted solution of an enzyme, and after a reaction at 40° C. for 10 minutes, 2.0 ml of a solution containing 0.1M trichloroacetic acid and 0.2M sodium acetate is immediately added for stopping a progress of the reaction. The mixture is kept at the same temperature for 20 minutes to precipitate unreacted casein completely and is filtered. 1 ml of the filtrate is subject to determination of tyrosine therein contained by the Folin's method. By the increase of 1γ of tyrosine per 1 minute, a proteinase activity of 1 mPU is to be indicated. 1 mPU×1,000 is equal to 1 PU.

[8] = Antigenic activity of formalin-treated elastase samples by precipitation line (Table 1); type: binding; details: quantity of antigen per dilution volume until a precipitation line first becomes visible; larger numeral = less potent
From the text: Note: In the above Table 1, the antigenic activity is expressed by a unit of μg/ml, wherein the numerator indicates the quantity of antigen and the denominator indicates the dilution volume required until a precipitation line first becomes visible.

Compound	effect on enzyme activity of elastase [1]	PHA Value (ddY mice [2])	elastase-neutralizing activity (ddY mice [3]; first collected blood (just before third inoculation)) [mPU/ml]	elastase-neutralizing activity (ddY mice [3]; second collected blood (14th day after third inoculation)) [mPU/ml]	Antigenic activity [4]	PHA Value (rabbits [5])	Elastase-neutralizing Activity (mPU/ml) (rabbits [6])	Antigen Concentration (rabbits [7]) [µg/mL]	specific activity (Casein; casein 2%, pH 7.4, 40° C., 10 minutes) [mPU/mg protein]	Enzymatic activity (Casein; listed property)	Antigenic activity [8] [µg/mL]	Residual Proteinase Activity (%) (Casein; elastase samples treated with formalin (HCHO), Table 1)
CC(C)C[C@@H](C(=O)N[C@@H](C)C(=O)NCC(N)=O)N(O)C(=O)CCl [Powers Reagent, chloroacetyl-N-hydroxy-L-leucyl-L-alanylglycinamide]	progressive loss of enzyme activity	–	–	–	–	–	–	–	–	–	–	–
Toxoid I: toxoid prepared by inactivating Pseudomonas aeruginosa elastase with the Powers Reagent	–	640	1.52	1.83	Positive	5120 and 2560	15 mPU/ml and 12 mPU/ml and 10 mPU/ml	15	0.06	Negative	–	–
crystalline elastase: purified crystalline elastase obtained from Pseudomonas aeruginosa, raw material of the toxoids	–	–	–	–	–	–	–	15	–	–	30	100
